# Activity calls are given as the source filed them. No cut-off for these calls is given here.
# Key:
# Rattus norvegicus [1] = assay: Antihepatotoxic activity Rattus norvegicus albino Wistar (rat) assessed as reduction of CCl4-induced increase of serum SGPT level at 50 mg/kg, po relative to control; format: functional; design: scale not given: the % may be the effect or the level left
# Rattus norvegicus [2] = assay: Antihepatotoxic activity Rattus norvegicus albino Wistar (rat) assessed as recovery of CCl4-induced cell damage at 50 mg/kg, po by hematoxylin and eosin staining; format: functional, organism-based; design: dose 50 mg/kg
# Rattus norvegicus [3] = assay: Antihepatotoxic activity Rattus norvegicus albino Wistar (rat) assessed as reduction of CCl4-induced increase of serum ALP level at 50 mg/kg, po relative to control; format: functional; design: scale not given: the % may be the effect or the level left
# Rattus norvegicus [4] = assay: Antihepatotoxic activity Rattus norvegicus albino Wistar (rat) assessed as reduction of CCl4-induced reduction of serum total protein level at 50 mg/kg, po relative to control; format: functional; design: scale not given: the % may be the effect or the level left
# Rattus norvegicus [5] = assay: Antihepatotoxic activity Rattus norvegicus albino Wistar (rat) assessed as reduction of CCl4-induced increase of serum SGOT level at 50 mg/kg, po relative to control; format: functional; design: scale not given: the % may be the effect or the level left
smiles,measurement,setting,value
C=C(C)C(/C=C/[C@@H](C)[C@H]1CCC2C3CC=C4C[C@@H](O[C@@H]5O[C@H](CO)[C@@H](O)[C@H](O)[C@H]5O)CC[C@]4(C)C3CC[C@@]21C)CC (stereo not given in full),Activity,Rattus norvegicus [1],52.25%
same,Activity,Rattus norvegicus [2],Active
same,Activity,Rattus norvegicus [3],74.77%
same,Activity,Rattus norvegicus [4],121.19%
same,Activity,Rattus norvegicus [5],57.71%

# — ChEMBL document CHEMBL3046767, “Antihepatotoxic activity of a sterol glucoside from aerial parts of Clerodendrum phlomidis” (2012)
